Measurements taken from ChEMBL document CHEMBL5233232, “Repurposed drug candidates for antituberculosis therapy” (Eur J Med Chem, 2020).
In brackets after ≈: the same amount, converted by molar mass.

Key:
[1] = tested on: Mycobacterium tuberculosis; test: Antitubercular activity against Mycobacterium tuberculosis H37Rv assessed as inhibition of bacterial growth; format: functional
[2] = tested on: Mycobacterium tuberculosis; test: Antitubercular activity against Mycobacterium tuberculosis H37Rv assessed as inhibition of bacterial growth incubated for 7 days by REMA assay; format: functional; details: 168 h, time 7 day
[3] = tested on: Mycobacterium tuberculosis; test: Antitubercular activity against Mycobacterium tuberculosis H37Rv assessed as inhibition of bacterial growth incubated for 5 days by turbidity-based growth inhibition assay; format: functional; details: 120 h, time 5 day
[4] = tested on: Mycobacterium tuberculosis; test: Antitubercular activity against Mycobacterium tuberculosis H37Rv assessed as inhibition of bacterial growth incubated for 5 days by REMA assay; format: functional; details: 120 h, time 5 day
[5] = tested on: Mycobacterium tuberculosis; test: Antibacterial activity against Mycobacterium tuberculosis H37Rv assessed as fold increase in sensitivity in presence of copper by REMA assay; format: functional
[6] = tested on: Mycobacterium tuberculosis; test: Antitubercular activity against Mycobacterium tuberculosis H37Rv assessed as inhibition of bacterial growth incubated for 24 hrs by checkerboard assay; format: functional
[7] = tested on: Mycobacterium tuberculosis; test: Antitubercular activity against Mycobacterium tuberculosis assessed as bacterial growth inhibition by CLSI based broth dilution method; format: functional
[8] = tested on: Mycobacterium tuberculosis; test: Antitubercular activity against Mycobacterium tuberculosis assessed as bacterial growth inhibition; format: functional
[9] = tested on: Mycobacterium tuberculosis; test: Antitubercular activity against Mycobacterium tuberculosis H37Rv assessed as inhibition of bacterial growth by broth microdilution method; format: functional
[10] = tested on: Mycobacterium tuberculosis; test: Antitubercular activity against Mycobacterium tuberculosis H37Rv assessed as inhibition of bacterial growth incubated for 2 days by resazurin-based assay; format: functional; details: 48 h, time 2 day
[11] = tested on: Mycobacterium tuberculosis; test: Antitubercular activity against Mycobacterium tuberculosis H37Rv assessed as inhibition of bacterial growth incubated for […] by REMA assay; format: functional
[12] = molecular target: T1, Thioredoxin reductase (Mycobacterium tuberculosis) (UniProt P9WHH1); test: Inhibition of Mycobacterium tuberculosis Thioredoxin reductase assessed as inhibition
T1 sequence (whole entry): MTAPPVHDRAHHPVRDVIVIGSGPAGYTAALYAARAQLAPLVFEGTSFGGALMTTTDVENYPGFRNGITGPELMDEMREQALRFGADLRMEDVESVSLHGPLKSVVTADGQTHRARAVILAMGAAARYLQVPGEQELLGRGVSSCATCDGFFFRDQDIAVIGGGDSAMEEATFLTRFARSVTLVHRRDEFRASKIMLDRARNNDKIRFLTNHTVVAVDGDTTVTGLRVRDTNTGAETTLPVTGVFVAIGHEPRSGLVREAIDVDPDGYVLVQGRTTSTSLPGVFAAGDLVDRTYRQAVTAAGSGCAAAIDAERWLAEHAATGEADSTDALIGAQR

[13] = tested on: Mycobacterium tuberculosis; test: Antitubercular activity against Mycobacterium tuberculosis H37Rv infected in ip dosed BALB/c mouse assessed as inhibition of bacterial growth; format: functional
[14] = molecular target: T2, Mycosin-1 (Mycobacterium tuberculosis (strain ATCC 25618 / H37Rv)) (UniProt O05461); test: Inhibition of Mycobacterium tuberculosis MycP1 assessed as inhibition rate at 150 uM relative to control
T2 sequence (whole entry): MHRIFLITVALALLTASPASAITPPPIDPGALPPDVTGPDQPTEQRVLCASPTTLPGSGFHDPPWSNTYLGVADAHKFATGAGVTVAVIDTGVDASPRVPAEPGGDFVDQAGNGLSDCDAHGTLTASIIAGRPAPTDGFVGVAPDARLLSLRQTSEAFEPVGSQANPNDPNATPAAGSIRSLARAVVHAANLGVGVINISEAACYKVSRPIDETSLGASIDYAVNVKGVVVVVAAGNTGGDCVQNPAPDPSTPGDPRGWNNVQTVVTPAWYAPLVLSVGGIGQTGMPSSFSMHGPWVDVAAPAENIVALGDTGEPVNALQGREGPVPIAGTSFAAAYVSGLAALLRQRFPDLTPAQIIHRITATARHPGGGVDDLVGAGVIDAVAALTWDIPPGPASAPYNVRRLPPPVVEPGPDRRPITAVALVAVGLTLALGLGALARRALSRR

[15] = tested on: Mycobacterium tuberculosis; test: Antitubercular activity against Mycobacterium tuberculosis H37Ra assessed as inhibition of bacterial growth incubated for 28 days by microbroth dilution method; format: functional; details: 672 h, time 28 day
[16] = tested on: Mycobacterium tuberculosis; test: Antitubercular activity against Mycobacterium tuberculosis H37Rv […] THP-1 cells in presence of rifampin; format: functional, organism-based
[17] = tested on: Mycobacterium tuberculosis; test: Antitubercular activity against Mycobacterium tuberculosis H37Rv […] THP-1 cells in presence of isoniazid; format: functional, organism-based
[18] = tested on: Mycobacterium tuberculosis; test: Antitubercular activity against Mycobacterium tuberculosis H37Rv […] THP-1 cells in presence of pyrazinamide; format: functional, organism-based
[19] = tested on: Mycobacterium tuberculosis; test: Antitubercular activity against Mycobacterium tuberculosis H37Rv […] THP-1 cells incubated for 48 hrs by microplate Alamar blue assay; format: functional
[20] = tested on: Mycobacterium tuberculosis; test: Antitubercular activity against Mycobacterium tuberculosis H37Rv assessed as inhibition of bacterial growth by incubated for 7 days by resazurin dye based broth microdilution method; format: functional; details: 168 h, time 7 day

C[C@@H](CNC(=O)CNC(=O)C(N)CC(=O)O)B1OC2CC3CC(C3(C)C)[C@@]2(C)O1.Cl (some centres not stated) was tested, and the MIC [1] was ≤ 5 µg/mL.
O[C@@H](c1cc(C(F)(F)F)nc2c(C(F)(F)F)cccc12)[C@H]1CCCCN1 [(S,R)-MEFLOQUINE] was tested, and the MIC [2] was 5 µg/mL (≈ 13.2 µM).
O=C(N[C@@H](Cc1ccccn1)C(=O)N[C@@H](CCc1ccccc1)B(O)O)c1cnccn1 was tested, and the MIC50 [3] was 2.5 µM (≈ 1.08 µg/mL).
For CC(C)CC(N)C(=O)NCC(=O)NC[C@H](C)B1OC2CC3CC(C3(C)C)[C@@]2(C)O1.Cl (some centres not stated), the MIC [1] was ≤ 5 µg/mL.
With C[C@@H]1CC[C@H]2[C@@H](C)C(=O)O[C@@H]3O[C@@]4(C)CC[C@@H]1[C@]32OO4 [ARTEMISININ] the MIC [4] was 75 µg/mL (≈ 266 µM).
For CC(C)(C)c1ccc(-c2nn(-c3ccccc3)cc2Cn2ccnc2)cc1, the MIC [2] was 1.56 µg/mL (≈ 4.38 µM).
With CN(NC(=O)CC(=O)NN(C)C(=S)c1ccccc1)C(=S)c1ccccc1 [ELESCLOMOL] the “fold change (FC)” value [5] was >65 and the MIC99 [6] was 4 µg/mL.
CSC1=C(C(=O)[O-])N2C(=O)[C@H]([C@@H](C)O)[C@H]2[C@H]1C.[Na+] was tested, and the MIC90 [7] was 0.25 µg/mL.
NC(=O)c1cnccn1 [PYRAZINAMIDE] showed an MIC [8] of 0.01 µg/mL (≈ 0.0812 µM).
C[C@@H](O)[C@H]1C(=O)N2C(C(=O)[O-])=C(SCC(=O)OC3CCCCC3)[C@H](C)[C@H]12.[Na+] was tested, and the MIC90 [7] was 1 µg/mL.
C[C@@H](O)[C@H]1C(=O)N2C(C(=O)[O-])=C(SC3Cn4cnc[n+]4C3)[C@H](C)[C@H]12 (some centres not stated) [BIAPENEM] was tested, and the MIC90 [9] was 2.5 µg/mL (≈ 7.13 µM).
C=CCNC(=S)NNC(=S)NCC=C gave an MIC [8] of 0.5 µg/mL (≈ 2.17 µM).
Work on COc1nc2ccc(Br)cc2cc1[C@@H](c1ccccc1)[C@@](O)(CCN(C)C)c1cccc2ccccc12 [BEDAQUILINE] yielded an MIC [10] of 0.06 µg/mL (≈ 0.108 µM).
With CCCCCC/C=C/C=C/CCCCCCCC(=O)O the MIC [11] was 200 µg/mL (≈ 713 µM) and the MIC [12] was < 20 µM.
For CCCCC/C=C\C=C\CCCCCCCCC(=O)O, the MIC [12] was < 20 µg/mL.
C[C@@H](O)[C@H]1C(=O)N2C(C(=O)O)=C(SC3CN(C4=NCCS4)C3)[C@H](C)[C@H]12 [TEBIPENEM] gave an MIC90 [9] of 1.25 µg/mL (≈ 3.26 µM).
For CO[C@H]1/C=C/O[C@@]2(C)Oc3c(C)c(O)c4c(O)c(c(/C=N/N5CCN(C)CC5)c(O)c4c3C2=O)NC(=O)/C(C)=C\C=C\[C@H](C)[C@H](O)[C@@H](C)[C@@H](O)[C@@H](C)[C@H](OC(C)=O)[C@@H]1C [RIFAMPIN], the MIC [8] was 0.01 µg/mL (≈ 0.0122 µM).
In the case of CC(C)C[C@H](N)C(=O)NCC(=O)NC[C@H](Cc1ccccc1)B(O)O, the MIC [1] is reported as ≤ 5 µg/mL.
In the case of CC(C)Cc1ccc(-c2nn(-c3ccccc3)cc2Cn2ccnc2)cc1, the MIC [2] is reported as 1.56 µg/mL (≈ 4.38 µM).
Work on CCCOC(=O)CSC1=C(C(=O)O)N2C(=O)[C@H]([C@@H](C)O)[C@H]2[C@H]1C yielded an MIC90 [7] of 1 µg/mL (≈ 2.91 µM).
In the case of O=c1c2ccccc2[se]n1-c1ccccc1 [EBSELEN], the MIC50 [1] is reported as 12.5 µg/mL (≈ 45.6 µM).
Work on C[C@H]1O[C@H](O[C@H]2[C@H](O)[C@@H](O)[C@@H](O[C@H]3[C@H](O)[C@@H](O)C(O)O[C@@H]3CO)O[C@@H]2CO)[C@H](O)[C@@H](O)[C@@H]1N[C@H]1C=C(CO)[C@@H](O)[C@H](O)[C@H]1O (some centres not stated) [ACARBOSE] yielded an MIC [8] of 0.05 µg/mL (≈ 0.0774 µM).
With CCCCC(CC)CNC(=N)NC(=N)NCCCCCCNC(=N)NC(=N)NCC(CC)CCCC.Cl.Cl (configuration not stated) [ALEXIDINE DIHYDROCHLORIDE] the MIC99 [13] was 0.05 µg/mL.
Molecule COc1ccc(CCN(C)CCCC(C#N)(c2ccc(OC)c(OC)c2)C(C)C)cc1OC (configuration not stated) [VERAPAMIL] has an MIC [1] of 125 µg/mL.
With CC(C)C[C@@H](N)C(=O)NCC(=O)NC[C@H](Cc1ccccc1)B(O)O.Cl the MIC [1] was ≤ 5 µg/mL.
For C=C1C[C@@]23CCC4[C@H](C(=O)O)CCC[C@@]4(C)[C@@H]2CC[C@@H]1C3 (some centres not stated), the MIC [12] was 0.5 µg/mL.
With NNC(=O)c1ccncc1 [ISONIAZID] the MIC [8] was 0.01 µg/mL (≈ 0.0729 µM).
N=C(N)c1ccc(/N=N/Nc2ccc(C(=N)N)cc2)cc1 gave an inhibition [14] of 58%.
Work on C[C@@H](O)[C@H]1C(=O)N2C(C(=O)O)=C(S[C@@H]3CN[C@H](CNS(N)(=O)=O)C3)[C@H](C)[C@H]12 (mixture of isomers) [DORIPENEM] yielded an MIC90 [7] of 1 µg/mL.
For Nc1nc(N)c(-c2ccc(C(=O)Nc3cccc(OC(F)(F)F)c3)cc2)c(OCc2cncs2)n1, the MIC [15] was 6.25 µg/mL (≈ 12.4 µM).
CCC(C)(C)C(=O)O[C@H]1C[C@@H](C)C=C2C=C[C@H](C)[C@H](CC[C@@H]3C[C@@H](O)CC(=O)O3)[C@H]21 [SIMVASTATIN] was tested, and the MIC [1] was > 320 µM.
With CC(C)C[C@H](NC(=O)[C@H](Cc1ccccc1)NC(=O)c1cnccn1)B(O)O [BORTEZOMIB] the MIC50 [3] was 4.3 µM (≈ 1.65 µg/mL).
CC[C@H](C)C(=O)O[C@H]1C[C@H](O)C=C2C=C[C@H](C)[C@H](CC[C@@H](O)C[C@@H](O)CC(=O)O)[C@H]21 [PRAVASTATIN] gave an EC50 [16] of 7.8 µM, an EC50 [17] of 7.8 µM and an EC50 [18] of 7.8 µM.
In the case of CC/C=C\C/C=C\C/C=C\CCCCCCCC(=O)O [LINOLENIC ACID], the MIC [8] is reported as > 320 µg/mL and the MIC [11] is reported as 200 µg/mL (≈ 718 µM).
Work on O=C(Nc1cccc2c(=O)cc(-c3nnn[nH]3)oc12)c1ccc(OCCCCc2ccccc2)cc1 [PRANLUKAST] yielded an MIC90 [19] of 5 µg/mL (≈ 10.4 µM).
CCCCCC/C=C/C=C\CCCCCCCC(=O)O was tested, and the MIC [12] was < 20 µg/mL.
Work on COc1ccc2nc3cc(Cl)ccc3c(Nc3cc(CN4CCCC4)c(O)c(CN4CCCC4)c3)c2n1 [PYRONARIDINE] yielded an MIC [20] of 5 µg/mL (≈ 9.65 µM).
